Patent publication US11555012B2 (Nimbus Artemis, Inc., priority 2018, dated 2023)

Columns and labels:
ACL [1] = target: T1, ACL (Homo sapiens (Human), UniProt P53396); experiment: ACLY-MDH Coupled Assay
Target sequence in this assay (P53396 whole entry, species assumed): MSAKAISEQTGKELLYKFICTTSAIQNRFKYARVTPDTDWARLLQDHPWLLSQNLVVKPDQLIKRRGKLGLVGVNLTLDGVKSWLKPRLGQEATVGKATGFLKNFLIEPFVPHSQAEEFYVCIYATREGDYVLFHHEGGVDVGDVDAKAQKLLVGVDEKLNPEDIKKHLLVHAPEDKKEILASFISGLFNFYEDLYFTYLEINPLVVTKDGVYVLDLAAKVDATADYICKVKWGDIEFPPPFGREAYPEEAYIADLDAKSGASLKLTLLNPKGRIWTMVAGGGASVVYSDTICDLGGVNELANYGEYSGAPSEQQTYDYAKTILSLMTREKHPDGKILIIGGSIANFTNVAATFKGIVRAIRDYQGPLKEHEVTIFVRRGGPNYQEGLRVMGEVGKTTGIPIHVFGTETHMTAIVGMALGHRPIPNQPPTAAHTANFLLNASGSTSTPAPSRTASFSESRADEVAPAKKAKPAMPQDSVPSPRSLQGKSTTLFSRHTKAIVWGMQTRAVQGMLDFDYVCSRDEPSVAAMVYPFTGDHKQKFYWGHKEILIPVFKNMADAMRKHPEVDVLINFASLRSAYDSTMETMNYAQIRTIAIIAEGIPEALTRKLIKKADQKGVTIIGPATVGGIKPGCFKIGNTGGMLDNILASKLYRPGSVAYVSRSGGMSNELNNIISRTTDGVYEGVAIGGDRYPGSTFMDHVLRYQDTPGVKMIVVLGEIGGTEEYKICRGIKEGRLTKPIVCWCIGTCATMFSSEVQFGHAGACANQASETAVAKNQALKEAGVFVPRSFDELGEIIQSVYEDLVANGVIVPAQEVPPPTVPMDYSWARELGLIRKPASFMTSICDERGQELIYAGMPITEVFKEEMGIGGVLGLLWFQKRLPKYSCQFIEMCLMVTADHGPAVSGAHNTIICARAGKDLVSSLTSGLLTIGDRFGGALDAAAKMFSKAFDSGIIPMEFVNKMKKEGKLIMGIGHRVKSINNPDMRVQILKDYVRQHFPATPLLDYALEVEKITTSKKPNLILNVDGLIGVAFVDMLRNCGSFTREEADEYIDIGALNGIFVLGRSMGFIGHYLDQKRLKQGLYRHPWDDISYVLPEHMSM
Experimental: Compounds of the present invention were evaluated in an ACLY Coupled Assay.
The assay protocol for the Coupled Assay (below) was followed:
b) Add 1 μL cpds to 96 assay plate, Test cpd conc: 100/30/10 μM top dose, 3 folds dilution, 10+0+control (control: buffer without ACL+DMSO) points, 1000 rpm for 1 min, incubation at 25° C. for 60 min

ACL [2] = target: T1, ACL; experiment: ADP-Glo Assay
Target sequence in this assay (P53396 other isoform, or with tags, fused parts or gaps isoform P53396-2): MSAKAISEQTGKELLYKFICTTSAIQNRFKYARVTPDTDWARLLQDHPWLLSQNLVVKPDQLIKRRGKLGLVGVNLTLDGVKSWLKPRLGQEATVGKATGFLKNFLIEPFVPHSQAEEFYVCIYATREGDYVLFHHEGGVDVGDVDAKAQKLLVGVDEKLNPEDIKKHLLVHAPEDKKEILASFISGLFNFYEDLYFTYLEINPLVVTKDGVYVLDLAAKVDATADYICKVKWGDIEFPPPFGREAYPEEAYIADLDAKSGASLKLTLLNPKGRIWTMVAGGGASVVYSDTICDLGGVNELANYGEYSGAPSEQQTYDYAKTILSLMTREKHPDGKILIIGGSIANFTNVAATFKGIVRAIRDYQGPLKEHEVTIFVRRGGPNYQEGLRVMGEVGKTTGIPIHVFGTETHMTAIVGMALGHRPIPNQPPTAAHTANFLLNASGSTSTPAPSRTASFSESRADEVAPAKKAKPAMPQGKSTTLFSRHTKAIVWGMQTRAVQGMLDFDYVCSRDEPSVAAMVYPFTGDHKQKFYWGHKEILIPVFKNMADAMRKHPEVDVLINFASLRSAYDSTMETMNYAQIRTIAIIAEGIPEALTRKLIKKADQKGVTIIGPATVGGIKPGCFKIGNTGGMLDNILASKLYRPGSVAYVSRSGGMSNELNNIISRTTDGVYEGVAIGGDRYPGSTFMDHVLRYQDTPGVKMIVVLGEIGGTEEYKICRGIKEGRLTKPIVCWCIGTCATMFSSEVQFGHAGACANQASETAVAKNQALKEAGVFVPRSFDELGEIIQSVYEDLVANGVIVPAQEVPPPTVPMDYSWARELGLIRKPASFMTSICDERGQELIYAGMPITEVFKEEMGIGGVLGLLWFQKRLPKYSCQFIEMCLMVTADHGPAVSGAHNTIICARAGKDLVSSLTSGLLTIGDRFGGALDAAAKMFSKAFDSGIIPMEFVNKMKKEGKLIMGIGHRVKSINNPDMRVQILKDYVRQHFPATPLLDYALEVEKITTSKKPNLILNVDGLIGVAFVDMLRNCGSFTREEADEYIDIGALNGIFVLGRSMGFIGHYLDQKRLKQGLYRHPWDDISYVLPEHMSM
Experimental: Compounds of the present invention were evaluated in an ADP-GLO assay as follows:
b) Add 0.1 μL diluted cpd solution to assay plate, each dose with 2 replicates c) Centrifuge 1000 RPM for 1 min d) Add 5 μL ACL working solution to 384-well assay plate, centrifuge 1000 RPM for 1 min e) Incubate at 25° C. for 15 min f) Add 5 μL substrate working solution to initiate reaction
h) Reference final conc: 30 uM starting Conc, 3× dilution, 11+0 points. Test cpd conc: 30/100 uM starting Conc, 3× dilution, 11+0 points. i) Incubate at 25° C. for 60 min j) Add 10 μL ADP Glo reagent, centrifuge 1000 RPM for 1 min k) Incubate at 25° C. for 40 min l) Add 20 μL kinase detection reagent, centrifuge 1000 RPM for 1 min m) Incubate at 25° C. for 40 min n) Read on Envision for US LUM as RLU

[3] = read-out: ACL-ADP-Glo (IC50), 3 nM ACL, 15 μM ATP, 3 μM CoA, 300 μM Citrate
[4] = read-out: ACL-MDH Coupled Assay (IC50), 8 nM ACL, 60 μM CoA Na2, 85 μM Citrate, 250 μM ATP, 250 μM NADH

Row | SMILES | IC50 (ACL [1]) [nM] | IC50 (ACL [2]) [nM] | IC50 (ACL [2]; [3]) [nM] | IC50 (ACL [1]; [4]) [nM]
1 | COc1ccc(-c2ccccc2)cc1NS(=O)(=O)c1cc(C(=O)NCCN)cc(Cl)c1O [I-64, N-(2-aminoethyl)-3-chloro-4-hydroxy-5-[(2-methoxy-5-phenylphenyl)sulfamoyl]benzamide] | 500 to 30000 | 500 to 20000 | – | –
2 | CNC(=O)c1cc(Cl)c(O)c(S(=O)(=O)Nc2cc(-c3ccccc3)ccc2OC)c1 [I-66, 3-chloro-4-hydroxy-5-[(2-methoxy-5-phenylphenyl)sulfamoyl]-N-methylbenzamide] | 500 to 30000 | 50 to 500 | – | –
3 | O=S(=O)(c1cc(Cl)cc(Cl)c1O)N(Cc1ccccc1)Cc1cccc(-c2ccccc2)c1 [I-67, N-([1,1′-biphenyl]-3-ylmethyl)-N-benzyl-3,5-dichloro-2-hydroxybenzenesulfonamide] | 500 to 30000 | 500 to 20000 | – | –
4 | COC(=O)c1cc(Cl)c(O)c(S(=O)(=O)Nc2ccc(F)cc2F)c1 [I-74, Methyl 3-chloro-5-(N-(2,4-difluorophenyl)sulfamoyl)-4-hydroxybenzoate] | 500 to 30000 | 50 to 500 | – | –
5 | CNC(=O)c1cc(Cl)c(O)c(S(=O)(=O)Nc2cc(-c3ccccc3)c(F)cc2F)c1 [I-92, 3-chloro-5-[(2,4-difluoro-5-phenylphenyl)sulfamoyl]-4-hydroxy-N-methylbenzamide] | 50 to 500 | 50 to 500 | – | –
6 | CC(C)NC(=O)c1cc(Cl)c(O)c(S(=O)(=O)Nc2cc(-c3ccccc3)c(F)cc2F)c1 [I-93] | 50 to 500 | – | < 50 | –
7 | COC(=O)Cc1cc(Cl)c(O)c(S(=O)(=O)Nc2cc(-c3ccccc3)ccc2OC)c1 [I-94, Methyl 2-[3-chloro-4-hydroxy-5-[(2-methoxy-5-phenylphenyl)sulfamoyl]phenyl]acetate] | 500 to 30000 | 500 to 20000 | – | –
8 | O=C(O)c1cc(Cl)c(O)c(S(=O)(=O)Nc2cc(-c3ccccc3)c(F)cc2F)c1 [I-95, 3-chloro-5-(N-(4,6-difluoro-[1,1′-biphenyl]-3-yl)sulfamoyl)-4-hydroxybenzoic Acid] | 50 to 500 | 50 to 500 | – | –
9 | O=C(c1cc(Cl)c(O)c(S(=O)(=O)Nc2cc(-c3ccccc3)c(F)cc2F)c1)N1CCOCC1 [I-99, 3-chloro-N-(4,6-difluoro-[1,1′-biphenyl]-3-yl)-2-hydroxy-5-(morpholine-4-carbonyl)benzenesulfonamide] | 500 to 30000 | 500 to 20000 | – | –
10 | O=C(c1cc(Cl)c(O)c(S(=O)(=O)Nc2cc(-c3ccccc3)c(F)cc2F)c1)N1Cc2ccccc2C1 [I-100, 3-chloro-N-(4,6-difluoro-[1,1′-biphenyl]-3-yl)-2-hydroxy-5-(isoindoline-2-carbonyl)benzenesulfonamide] | 500 to 30000 | 50 to 500 | – | –
11 | O=C(c1cc(Cl)c(O)c(S(=O)(=O)Nc2cc(-c3ccccc3)c(F)cc2F)c1)N1CCCCC1 [I-102, 3-chloro-N-(2,4-difluoro-5-phenylphenyl)-2-hydroxy-5-[(piperidin-1-yl)carbonyl]benzene-1-sulfonamide] | 500 to 30000 | 50 to 500 | – | –
12 | CO[C@H]1CCN(C(=O)c2cc(Cl)c(O)c(S(=O)(=O)Nc3cc(-c4ccccc4)c(F)cc3F)c2)C1 [I-103, 3-chloro-N-(2,4-difluoro-5-phenylphenyl)-2-hydroxy-5-[[(3S)-3-methoxypyrrolidin-1-yl]carbonyl]benzene-1-sulfonamide] | – | – | < 50 | < 50
13 | CO[C@@H]1CCN(C(=O)c2cc(Cl)c(O)c(S(=O)(=O)Nc3cc(-c4ccccc4)c(F)cc3F)c2)C1 [I-104, 3-chloro-N-(2,4-difluoro-5-phenylphenyl)-2-hydroxy-5-[[(3R)-3-methoxypyrrolidin-1-yl]carbonyl]benzene-1-sulfonamide] | 500 to 30000 | 50 to 500 | – | –
14 | O=C(c1cc(Cl)c(O)c(S(=O)(=O)Nc2cc(-c3ccccc3)c(F)cc2F)c1)N1CC[C@H](O)C1 [I-105, (S)-3-chloro-N-(4,6-difluoro-[1,1′-biphenyl]-3-yl)-2-hydroxy-5-(3-hydroxypyrrolidine-1-carbonyl)benzenesulfonamide] | – | – | < 50 | < 50
